Entries after “also recorded” stand apart in the source; their conditions may differ. Where two headings read alike, the source gives them in different places.
Experiments:
MDA-MB-231 cells = experiment: Resazurin-based cytotoxicity assay in MDA-MB-231 cells; assay type: cell-based, human; conditions: for IC50: Homo sapiens
Source text: (§1) To investigate the impact of ring-opening, we first submitted the open-chain analogue 1 [9] to the National Cancer Institute (NCI) 60-cell line screening (Supplementary Material S1) and determined the cytotoxicity of nine newly synthesized open-chain analogues 4–12 (Figure 2, Supplementary Materials S2 and S3) against MDA-MB-231 cells (Table S1). […] Furthermore, the majority of the nine new open-chain analogues were modestly less cytotoxic towards MDA-MB-231 cells when compared to their direct ring-closed counterparts (analogues 13–21 matching with 4–12; Figures S1 and S2 and Table S1).
The human breast cancer cell line (MDA-MB-231) was maintained in a DMEM high glucose culture medium supplemented with 10% (v/v) fetal bovine serum (FBS) and 2 mM L-glutamine. Parental (Sec61α-WT) HCT-116 (human colorectal cancer cells, ATCC, CCL-247) and mutant (Sec61α-G80W) HCT-116 cells were maintained in McCoy’s 5A (modified) medium ((ThermoFisher, Waltham, MA, USA, 16600-082)) supplemented with 10% (v/v) FBS (Gibco, 10500-064) and 100 units/mL penicillin and […] streptomycin (Gibco, cat: 15140-122). All cell lines were maintained in a 5% CO2 humidified incubator at 37 °C. Cytotoxicity assays were performed in triplicate sets as previously described and viable cells were counted using an automated cell counter (Bio-Rad TC20) immediately before each experiment. Compound stock solutions in DMSO (10 mM) were diluted with supplemented culture media (MDA-MB-231 cells: high glucose DMEM; HCT116 Sec61α-WT and Sec61α-G80W cells: McCoy’s (modified) 5A) to make a series of gradient fresh working solutions at equal DMSO percentage immediately prior to each test. First, […] of cells at a cell density of […] (MDA-MB-231 cells) or 2.5 × 10^4 cells/mL (Sec61α-WT or Sec61α-G80W HCT-116 cells) were seeded in black 96-well microtiter plates (Falcon, product 353219; 2500 cells/well) and incubated at 37° C for 24 h. Subsequently, the cells were treated with either […] of the freshly made gradient working solution in a total volume of […]/well (MDA-MB-231 cells) or 25 mL of freshly made gradient in a total volume of […]/well (Sec61α-WT or Sec61α-G80W HCT-116 cells) at 37 °C for 72 h. For MDA-MB-231 cells, the media were discarded and […] fresh medium containing 10% (v/v) alamarBlue HS cell viability reagent (resazurin stock solution) (ThermoFisher, Waltham, MA, USA, A50100) was added to each well. For Sec61α-WT or Sec61α-G80W HCT-116 cells, the media was not discarded and alamarBlue HS cell viability reagent (resazurin stock solution) (ThermoFisher, Waltham, MA, USA, A50100) was added to 10% (v/v). After that, all cells were incubated at 37 °C for a further 1–3 h and the emission of each well at 620 nm was detected using a Synergy H1 Hybrid multi-mode plate reader (BioTek, Agilent Technologies, Palo Alto, CA, USA) at excitation 580 nm. […] IC50 value estimates were determined using nonlinear regression to fit data to a curve of variable slope (four parameters) using the least-squares fitting method. For HCT-116 cell IC50 curves, the top and bottom plateaus were defined as 100% and 23.70% (the mean of all data at 25 µM across all compounds), respectively.

[1] = biological target: T1, Sec61-mediated protein translocation (membrane integration of Ii) (Canis lupus familiaris, UniProt P38377); experiment: In vitro membrane insertion assay of Ii with ER microsomes; assay type: biochemical, canine; conditions: for inhibition of in vitro membrane integration of Ii / reduction in Ii membrane integration: 1 µM compound; for inhibition of in vitro membrane integration of Ii: versus DMSO control
T1 construct: cell-free translation system supplemented with ER microsomes derived from canine pancreas; from tissue; host or cells: canine pancreas ER microsomes (nuclease-treated); the Ii substrate was translated in vitro from T7-transcribed RNA
T1 sequence (P60058 whole entry): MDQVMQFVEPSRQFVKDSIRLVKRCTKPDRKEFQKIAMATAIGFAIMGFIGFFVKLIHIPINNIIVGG
T1 sequence (P38377 2-476): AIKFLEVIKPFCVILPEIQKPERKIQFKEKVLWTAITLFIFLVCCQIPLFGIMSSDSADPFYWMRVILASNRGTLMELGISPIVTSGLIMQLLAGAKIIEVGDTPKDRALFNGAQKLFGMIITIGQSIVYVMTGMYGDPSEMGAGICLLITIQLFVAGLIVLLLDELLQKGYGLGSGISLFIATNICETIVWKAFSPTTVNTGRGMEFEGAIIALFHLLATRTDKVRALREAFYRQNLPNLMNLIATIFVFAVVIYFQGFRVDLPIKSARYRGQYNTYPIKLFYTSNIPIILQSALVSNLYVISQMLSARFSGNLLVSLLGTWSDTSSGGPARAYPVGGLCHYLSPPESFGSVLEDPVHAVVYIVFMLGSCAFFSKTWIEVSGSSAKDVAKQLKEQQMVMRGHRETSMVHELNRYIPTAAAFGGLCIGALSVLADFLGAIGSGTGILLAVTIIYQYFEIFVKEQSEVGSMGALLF
T1 sequence (P60467 2-96, further chain): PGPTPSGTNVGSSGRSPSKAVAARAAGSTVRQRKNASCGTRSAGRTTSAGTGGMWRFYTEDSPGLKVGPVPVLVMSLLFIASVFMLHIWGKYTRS
Source text: Having previously established that the principal molecular basis for the cytotoxicity of Ipom-F is its strong, yet reversible, binding to Sec61α and the resultant wide-ranging blockade of Sec61-mediated protein translocation at the ER [13], we sought evidence that this mechanism also underlies the cytotoxic effects of 1 and other open-chain analogues. […] For comparative purposes, we analyzed the effects of 2 [13] and two closed-chain compounds: Ipom-F and the diester-modified analogue 22 [11] in parallel (Figure 3A).
Following the resolution of radiolabeled proteins by SDS-PAGE (Figure 3B), we used the efficiency with which the N-terminal domain of the type II integral membrane protein Ii (short form of HLA class II histocompatibility antigen gamma chain, isoform 1) was N-glycosylated inside the ER lumen as a robust reporter for the authentic membrane integration of this model Sec61-dependent protein client (Figure 3B, right upper panel, 0Gly versus 2 Gly forms).
Linear DNA of the short form of human HLA class II histocompatibility antigen gamma chain (Ii; P04232, […], residues 17–232) or human glycophorin C (GypC; P04921) were generated by PCR and transcribed into RNA using T7 RNA polymerase (Promega). Membrane insertion assays (20 µL, 1 h at 30 °C, containing 6.5% (v/v) nuclease-treated ER microsomes (from stock with OD280 = 44/mL)), endoglycosidase Hf (New England Biolabs) treatment, sample resolution by SDS-PAGE (16% polyacrylamide gels) and gel drying were performed as previously described. Following exposure to a phosphorimaging plate for 24–72 h, radiolabeled products were visualized using a Typhoon FLA-7000 (GE Healthcare, Tokyo, Japan) and the ratio of the signal intensity for the N-glycosylated (XGly) and non-glycosylated (0Gly) forms obtained using AIDA v.5.0 (Raytest Isotopenmeβgeräte). This value was then expressed relative to the matched DMSO control (set to 100%) in order to estimate the mean relative insertion (± SEM) from insertion experiments performed in triplicate (n = 3, biologically independent experiments). IC50 value estimates were determined in Prism 8 (GraphPad, San Diego, CA, USA) using nonlinear regression to fit data to a curve of variable slope (four parameters) using the least-squares fitting method, with the top and bottom plateaus of the curve defined as 100% and 7.67% (the mean of all data at 500 µM across all compounds), respectively.

HCT116 Sec61α-WT cells = experiment: Resazurin-based cell viability assay in HCT116 Sec61α-WT cells; set-up: species or system human; conditions: for cell death: 50 nM, 72 h; for IC50: Homo sapiens
Method: Parental (Sec61α-WT) […] All cell lines were maintained in a 5% CO2 humidified incubator at 37 °C. Cytotoxicity assays were performed in triplicate sets as previously described and viable cells were counted using an automated cell counter (Bio-Rad TC20) immediately before each experiment. Compound stock solutions in DMSO (10 mM) were diluted with supplemented culture media (MDA-MB-231 cells: high glucose DMEM; HCT116 Sec61α-WT and Sec61α-G80W cells: McCoy’s (modified) 5A) to make a series of gradient fresh working solutions at equal DMSO percentage immediately prior to each test. […] For MDA-MB-231 cells, the media were discarded and […] fresh medium containing 10% (v/v) alamarBlue HS cell viability reagent (resazurin stock solution) (ThermoFisher, Waltham, MA, USA, A50100) was added to each well. For Sec61α-WT or Sec61α-G80W HCT-116 cells, the media was not discarded and alamarBlue HS cell viability reagent (resazurin stock solution) (ThermoFisher, Waltham, MA, USA, A50100) was added to 10% (v/v). After that, all cells were incubated at 37 °C for a further 1–3 h and the emission of each well at 620 nm was detected using a Synergy H1 Hybrid multi-mode plate reader (BioTek, Agilent Technologies, Palo Alto, CA, USA) at excitation 580 nm. […] IC50 value estimates were determined using nonlinear regression to fit data to a curve of variable slope (four parameters) using the least-squares fitting method.

NCI 60-cell line = NCI 60-cell line screening; assay type: cell-based, human; conditions: for GI50: Homo sapiens, read-out: average GI50
Source text: as §1

[2] = MDA-MB-231, MDA-MB-231 cells, at least three independent experiments, read-out: IC50 ± SD, ring-open
[3] = Table 1, Ii membrane integration, read-out: In Vitro Translocation Inhibition (IC50)
[4] = HCT-116, Table 1, HCT116 Sec61α-WT cells, read-out: Cytotoxicity HCT-116 Cells (IC50)
[5] = MDA-MB-231, 72 h, MDA-MB-231 cells, 72 h, read-out: IC50 (cytotoxicity)

inhibition of in vitro membrane integration of Ii [1] | IC50 [1, 3] [nM] | SMILES | IC50 (MDA-MB-231 cells; [2]) [nM] | cell death (HCT116 Sec61α-WT cells; HCT116 Sec61α-WT cells) | IC50 (HCT116 Sec61α-WT cells; [4]) [nM] | IC50 (MDA-MB-231 cells; [5]) [nM] | further results
– | – | C=CCCCC(=O)CCC(=O)OCC1OC(OC2C(OC(CC=C)CCCCC)OC(C)C(OC(C)=O)C2O)C(O)C(O)C1OC(=O)C=Cc1ccccc1 (centres unmarked) [analogue 11] | 6320 | – | – | – | –
– | – | C=CCCCC(=O)CCC(=O)OCC1OC(OC2C(OC(CC=C)CCCCC)OC(C)C(OC(C)=O)C2O)C(O)C(OC(=O)C(C)=CC)C1OC(=O)CCc1ccccc1 (centres unmarked) [analogue 9] | 2170 | – | – | – | –
efficiently, albeit variably, inhibited | 334 | C/C=C(\C)C(=O)O[C@@H]1[C@@H](O)[C@@H]2O[C@H]3[C@H](O[C@@H](CCCCC)CCCCCOC(=O)CCC(=O)OC[C@@H](O2)[C@H]1OC(=O)/C=C/c1ccccc1)O[C@H](C)[C@H](OC(C)=O)[C@@H]3O [analogue 22] | – | 48–64% | 70 | – | –
– | – | C#CCOc1ccc(C=CC(=O)OC2C(COC(=O)CCC(=O)CCCC=C)OC(OC3C(OC(CC=C)CCCCC)OC(C)C(OC(C)=O)C3O)C(O)C2OC(=O)C(C)=CC)cc1 (centres unmarked) [analogue 4] | 168 ± 19 | – | – | ~168 | loss in activity when compared to 1 (MDA-MB-231 cells; MDA-MB-231 cells IC50): 3–4 fold
efficiently, albeit variably, inhibited | 291 | C=CCCN(C)C(=O)CCC(=O)OCC1OC(OC2C(OC(CC=C)CCCCC)OC(C)C(OC(C)=O)C2O)C(O)C(OC(=O)C(C)=CC)C1OC(=O)C=Cc1ccccc1 (centres unmarked) [analogue 5] | 43 ± 11 | 48–64% | 41 | ~43 | reduction in Ii membrane integration [1]: 73–86%
– | – | C=CCCCC(=O)CCC(=O)OCC1OC(OC2C(OC(CC=C)CCCCC)OC(C)C(OC(C)=O)C2O)C(O)C(OC(=O)C(C)=CC)C1O (centres unmarked) [analogue 12] | 5600 | – | – | – | –
efficiently, albeit variably, inhibited | 202 | C/C=C(\C)C(=O)O[C@@H]1[C@@H](O)[C@H](O[C@H]2[C@H](O[C@H](CCC)CCCCC)O[C@H](C)[C@H](OC(C)=O)[C@@H]2O)O[C@H](COC(=O)CCC(=O)CCCCC)[C@H]1OC(=O)/C=C/c1ccccc1 [analogue 2] | – | 48–64% | 41 | – | reduction in Ii membrane integration [1]: 73–86%
– | – | C=CCCCC(=O)CCC(=O)OCC1OC(OC2C(OC(CC=C)CCCCC)OC(C)C(OC(C)=O)C2O)C(O)C(OC(=O)C(C)=CC)C1OC(=O)C(C)=CC (centres unmarked) [analogue 10] | 2740 | – | – | – | –
– | – | C=CCCCC(=O)CCC(=O)OCC1OC(OC2C(OC(CC=C)CCCCC)OC(C)C(OC(C)=O)C2O)C(O)C(OC(=O)C(C)=CC)C1OC(=O)c1ccccc1 (centres unmarked) [analogue 8] | 4610 | – | – | – | –
efficiently, albeit variably, inhibited | 562 | C=CCCCC(=O)CCC(=O)OC[C@H]1O[C@@H](O[C@H]2[C@H](O[C@H](CC=C)CCCCC)O[C@H](C)[C@H](OC(C)=O)[C@@H]2O)[C@H](O)[C@@H](OC(=O)/C(C)=C/C)[C@@H]1OC(=O)/C=C/c1ccccc1 [analogue 1] | 59 ± 8.1 | 48–64% | 170 | ~60 | GI50 (NCI 60-cell line; NCI 60-cell line screening, average over cell lines): ~135 nM; loss in potency when compared to Ipom-F (NCI 60-cell line; NCI 60-cell line average GI50): 4–5 fold; loss in potency when compared to Ipom-F (MDA-MB-231 cells; MDA-MB-231 cells IC50): 9 fold
– | – | C=CCCCC(=O)CCC(=O)OCC1OC(OC2C(OC(CC=C)CCCCC)OC(C)C(O)C2O)C(O)C(OC(=O)C(C)=CC)C1OC(=O)C=Cc1ccccc1 (centres unmarked) [analogue 7] | 3880 | – | – | – | –

SMILES | inhibition of in vitro membrane integration of Ii [1] | IC50 [1, 3] [nM] | IC50 (MDA-MB-231 cells; [2]) [nM] | cell death (HCT116 Sec61α-WT cells; HCT116 Sec61α-WT cells) | IC50 (HCT116 Sec61α-WT cells; [4]) [nM] | IC50 (MDA-MB-231 cells; [5]) [nM] | further results
C=CCCCCCCC(=O)OCC1OC(OC2C(OC(CC=C)CCCCC)OC(C)C(OC(C)=O)C2O)C(O)C(OC(=O)C(C)=CC)C1OC(=O)C=Cc1ccccc1 (centres unmarked) [analogue 6] | did not; also recorded: negligible inhibition | – | 205 ± 11 | ~ 20% | – | ~205 | loss in activity when compared to 1 (MDA-MB-231 cells; MDA-MB-231 cells IC50): 3–4 fold
C/C=C(\C)C(=O)O[C@@H]1[C@@H](O)[C@@H]2O[C@H]3[C@H](O[C@@H](CCCCC)CCCCCCC(=O)CCC(=O)OC[C@@H](O2)[C@H]1OC(=O)/C=C/c1ccccc1)O[C@H](C)[C@H](OC(C)=O)[C@@H]3O [Ipom-F, ipomoeassin F] | efficiently, albeit variably, inhibited | – | – | 48–64% | – | – | GI50 (NCI 60-cell line; 60 cell): ~30 nM; IC50 [1]: 155 nM; reduction in Ii membrane integration [1]: 73–86%; IC50 (MDA-MB-231 cells; MDA-MB-231, 72 h, read-out: IC50 (cytotoxicity)): ~7 nM; IC50 (MDA-MB-231 cells; MDA-MB-231, read-out: IC50 ± SD, ring-closed): 6.5 ± 0.4 nM; IC50 (HCT116 Sec61α-WT cells; HCT-116, read-out: Cytotoxicity HCT-116 Cells (IC50)): 18 nM
